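Step 1: Grow cells in 96-well plates. Step 2: Expose to compound for 48 hours at 5 concentrations. Step 3: Interpolate endpoints linearly; if unreached, use highest concentration. At the TGI there is no net growth.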
Tests used:
Experiment in all cases: NCI anticancer screen, dose series, 48 h
SK-MEL-28 melanoma = system: SK-MEL-28 melanoma
U251 CNS = system: U251 CNS
RXF 393 renal = system: RXF 393 renal
EKVX NSCLC = system: EKVX NSCLC
DLD-1 colon = system: DLD-1 colon
DMS 273 small cell lung = system: DMS 273 small cell lung
SR leukemia = system: SR leukemia
786-0 renal = system: 786-0 renal
IGROV1 ovarian = system: IGROV1 ovarian
HOP-92 NSCLC = system: HOP-92 NSCLC
SK-OV-3 ovarian = system: SK-OV-3 ovarian
SK-MEL-2 melanoma = system: SK-MEL-2 melanoma
CCRF-CEM leukemia = system: CCRF-CEM leukemia
UACC-62 melanoma = system: UACC-62 melanoma
SF-268 CNS = system: SF-268 CNS
HCC-2998 colon = system: HCC-2998 colon
KM12 colon = system: KM12 colon
TK-10 renal = system: TK-10 renal
UACC-257 melanoma = system: UACC-257 melanoma
SF-295 CNS = system: SF-295 CNS
COLO 205 colon = system: COLO 205 colon
NCI-H226 lung = system: NCI-H226 lung
UO-31 renal = system: UO-31 renal
M19-MEL melanoma = system: M19-MEL melanoma
OVCAR-8 ovarian = system: OVCAR-8 ovarian
ACHN renal = system: ACHN renal
HL-60(TB) leukemia = system: HL-60(TB) leukemia
MALME-3M melanoma = system: MALME-3M melanoma
NCI-H460 lung = system: NCI-H460 lung
A498 renal = system: A498 renal
RPMI-8226 leukemia = system: RPMI-8226 leukemia
SNB-78 CNS = system: SNB-78 CNS
HCT-116 colon = system: HCT-116 colon
CAKI-1 renal = system: CAKI-1 renal
SNB-75 CNS = system: SNB-75 CNS
LXFL 529 NSCLC = system: LXFL 529 NSCLC
A549 NSCLC = system: A549 NSCLC
OVCAR-5 ovarian = system: OVCAR-5 ovarian
M14 melanoma = system: M14 melanoma
SK-MEL-5 melanoma = system: SK-MEL-5 melanoma
HOP-62 NSCLC = system: HOP-62 NSCLC
NCI-H23 lung = system: NCI-H23 lung
OVCAR-3 ovarian = system: OVCAR-3 ovarian
SN12C renal = system: SN12C renal
LOX IMVI melanoma = system: LOX IMVI melanoma
MOLT-4 leukemia = system: MOLT-4 leukemia
HT29 colon = system: HT29 colon
NCI-H522 lung = system: NCI-H522 lung
SF-539 CNS = system: SF-539 CNS
SNB-19 CNS = system: SNB-19 CNS
SW-620 colon = system: SW-620 colon
OVCAR-4 ovarian = system: OVCAR-4 ovarian
K-562 leukemia = system: K-562 leukemia
DMS 114 small cell lung = system: DMS 114 small cell lung

Structure (SMILES): CC(=O)NC1=C(C)C(=O)c2c(nc3n2CCC3OC(=O)CCl)C1=O (configuration not stated)
- TGI (SK-MEL-28 melanoma): 31.4 µM
- TGI (U251 CNS): 11.8 µM
- TGI (RXF 393 renal): 18.1 µM
- TGI (EKVX NSCLC): 20.6 µM
- TGI (DLD-1 colon): 29.7 µM
- TGI (DMS 273 small cell lung): 33.6 µM
- TGI (SR leukemia): > 100 µM
- TGI (786-0 renal): 21.6 µM
- TGI (IGROV1 ovarian): 25.2 µM
- TGI (HOP-92 NSCLC): 5.15 µM
- TGI (SK-OV-3 ovarian): 37.9 µM
- TGI (SK-MEL-2 melanoma): 10.2 µM
- TGI (CCRF-CEM leukemia): 4.52 µM
- TGI (UACC-62 melanoma): 6.33 µM
- TGI (SF-268 CNS): 21.9 µM
- TGI (HCC-2998 colon): 25.7 µM
- TGI (KM12 colon): 29.5 µM
- TGI (TK-10 renal): 43.1 µM
- TGI (UACC-257 melanoma): 25.5 µM
- TGI (SF-295 CNS): 29.9 µM
- TGI (COLO 205 colon): 34.7 µM
- TGI (NCI-H226 lung): 7.01 µM
- TGI (UO-31 renal): 31.9 µM
- TGI (M19-MEL melanoma): 26.3 µM
- TGI (OVCAR-8 ovarian): 16.6 µM
- TGI (ACHN renal): 42.5 µM
- TGI (HL-60(TB) leukemia): 8.58 µM
- TGI (MALME-3M melanoma): 16.6 µM
- TGI (NCI-H460 lung): 56.2 µM
- TGI (A498 renal): 27.4 µM
- TGI (RPMI-8226 leukemia): > 100 µM
- TGI (SNB-78 CNS): 6.5 µM
- TGI (HCT-116 colon): 5.57 µM
- TGI (CAKI-1 renal): 35.2 µM
- TGI (SNB-75 CNS): 30.1 µM
- TGI (LXFL 529 NSCLC): 5.12 µM
- TGI (A549 NSCLC): 26 µM
- TGI (OVCAR-5 ovarian): 25.5 µM
- TGI (M14 melanoma): 32.2 µM
- TGI (SK-MEL-5 melanoma): 25.4 µM
- TGI (HOP-62 NSCLC): 31.6 µM
- TGI (NCI-H23 lung): 26.1 µM
- TGI (OVCAR-3 ovarian): 3680 nM
- TGI (SN12C renal): 24.1 µM
- TGI (LOX IMVI melanoma): 16.8 µM
- TGI (MOLT-4 leukemia): 4.48 µM
- TGI (HT29 colon): 30.3 µM
- TGI (NCI-H522 lung): 11.9 µM
- TGI (SF-539 CNS): 6.47 µM
- TGI (SNB-19 CNS): 32.1 µM
- TGI (SW-620 colon): 22.6 µM
- TGI (OVCAR-4 ovarian): 4.19 µM
- TGI (K-562 leukemia): 5.73 µM

Structure (SMILES): CC(=O)NC1=C(C)C(=O)c2c(nc3n2CCC3OC(=O)c2ccccc2)C1=O (configuration not stated)
- TGI (SK-MEL-28 melanoma): 3.67 µM
- TGI (U251 CNS): 3.86 µM
- TGI (RXF 393 renal): 11.6 µM
- TGI (EKVX NSCLC): 3.01 µM
- TGI (DLD-1 colon): 4.46 µM
- TGI (DMS 273 small cell lung): 5.28 µM
- TGI (SR leukemia): 6 µM
- TGI (786-0 renal): 14.9 µM
- TGI (IGROV1 ovarian): 3.98 µM
- TGI (HOP-92 NSCLC): 4.7 µM
- TGI (SK-OV-3 ovarian): 8.51 µM
- TGI (SK-MEL-2 melanoma): 3.19 µM
- TGI (CCRF-CEM leukemia): 4.44 µM
- TGI (UACC-62 melanoma): 3.44 µM
- TGI (SF-268 CNS): 4.52 µM
- TGI (HCC-2998 colon): 12.1 µM
- TGI (KM12 colon): 10.3 µM
- TGI (TK-10 renal): 24.1 µM
- TGI (UACC-257 melanoma): 2.93 µM
- TGI (SF-295 CNS): 3.06 µM
- TGI (COLO 205 colon): 12.5 µM
- TGI (NCI-H226 lung): 4.69 µM
- TGI (UO-31 renal): 6.3 µM
- TGI (M19-MEL melanoma): 3.57 µM
- TGI (OVCAR-8 ovarian): 2.95 µM
- TGI (ACHN renal): 8.72 µM
- TGI (HL-60(TB) leukemia): 5.13 µM
- TGI (MALME-3M melanoma): 3.38 µM
- TGI (NCI-H460 lung): 5.13 µM
- TGI (A498 renal): 25.3 µM
- TGI (RPMI-8226 leukemia): 5.62 µM
- TGI (DMS 114 small cell lung): 2540 nM
- TGI (SNB-78 CNS): 5.46 µM
- TGI (HCT-116 colon): 4.1 µM
- TGI (CAKI-1 renal): 4.78 µM
- TGI (SNB-75 CNS): 6.36 µM
- TGI (LXFL 529 NSCLC): 2.9 µM
- TGI (A549 NSCLC): 3.1 µM
- TGI (OVCAR-5 ovarian): 3.54 µM
- TGI (M14 melanoma): 3.47 µM
- TGI (SK-MEL-5 melanoma): 3.12 µM
- TGI (HOP-62 NSCLC): 5.56 µM
- TGI (NCI-H23 lung): 3.55 µM
- TGI (OVCAR-3 ovarian): 528 nM
- TGI (SN12C renal): 3.41 µM
- TGI (LOX IMVI melanoma): 2.96 µM
- TGI (MOLT-4 leukemia): 5.57 µM
- TGI (HT29 colon): 3.48 µM
- TGI (NCI-H522 lung): 4.06 µM
- TGI (SF-539 CNS): 3.4 µM
- TGI (SNB-19 CNS): 7.65 µM
- TGI (SW-620 colon): 4.55 µM
- TGI (OVCAR-4 ovarian): 3.2 µM
- TGI (K-562 leukemia): 6.17 µM
